Assay results published in US6492381B1, “Tricyclic carbamate compounds useful for inhibition of G-protein function and for treatment of proliferative diseases” (Schering Corp., priority 1993, dated 2002).

Key:
[1] = biological target: T1, farnesyl protein transferase (FPT) (Rattus norvegicus, UniProt Q02293+Q04631); assay: In vitro enzyme assay: inhibition of farnesyl protein transferase; assay type: biochemical; conditions: Ras-CVLS farnesylation, partially purified rat brain FPT; read-out: FPT IC50
T1 construct: were partially purified from rat brain by ammonium sulfate fractionation followed by Q-Sepharose; from tissue; host or cells: rat brain
Description: (§1) 1. In vitro enzyme assays: Inhibition of farnesyl protein transferase and geranylgeranyl protein transferase.
Human farnesyl protein transferase was also expressed in E. coli, using cDNA clones encoding both the α and β subunits. […] Two forms of val^12-Ha-Ras protein were prepared as substrates for these enzymes, differing in their carboxy terminal sequence. One form terminated in cysteine-valine-leucine-serine (Ras-CVLS) the other in cystein-valine-leucine-leucine (Ras-CVLL). Ras-CVLS is a substrate for the farnesyl protein transferase while Ras-CVLL is a substrate for geranylgeranyl protein transferase I. The cDNAs encoding these proteins were constructed so that the proteins contain an amino-terminal extension of 6 histidine residues. Both proteins were expressed in Escherichia coli and purified using metal chelate affinity chromatography. The radiolabelled isoprenyl pyrophosphate substrates, [^3H]farnesyl pyrophosphate and [^3H]geranylgeranyl pyrophosphate, were purchased from DuPont/New England Nuclear.
The reaction was allowed to proceed for 30 minutes at room temperature and then stopped with 0.5 ml of 4% sodium dodecyl sulfate (SDS) followed by 0.5 ml of cold 30% trichloracetic acid (TCA). Samples were allowed to sit on ice for 45 minutes and precipitated Ras protein was then collected on GF/C filter paper mats using a Brandel cell harvester. […] Percent inhibition was calculated relative to the DMSO vehicle control.

[2] = biological target: T2, geranylgeranyl protein transferase (GGPT) I (Rattus norvegicus, UniProt P53610+Q04631); assay: In vitro enzyme assay: inhibition of geranylgeranyl protein transferase I; assay type: biochemical
T2 construct: were partially purified from rat brain by ammonium sulfate fractionation followed by Q-Sepharose; from tissue; host or cells: rat brain
Excerpt: as §1
Both farnesyl protein transferase (FPT) and geranylgeranyl protein transferase (GGPT) I were partially purified from rat brain by ammonium sulfate fractionation followed by Q-Sepharose (Pharmacia, Inc.) anion exchange chromatography essentially as described by Yokoyama et al (Yokoyama, K., et al., (1991). A protein geranylgeranyltransferase from bovine brain: Implications for protein prenylation specificity, Proc. Natl. Acad. Sci USA 88: 5302-5306, the disclosure of which is incorporated herein by reference thereto). Human farnesyl protein transferase was also expressed in E. coli, using cDNA clones encoding both the α and β subunits. The methods used were similar to those published (Omer, C. et al., (1993), Characterization of recombinant human farnesyl protein transferase: Cloning, expression, farnesyl diphosphate binding, and functional homology with yeast prenyl-protein transferase, Biochemistry 32:5167-5176). Human farnesyl protein transferase was partially-purified from the soluble protein fraction of E. coli as described above. the tricyclic farnesyl protein transferase inhibitors disclosed herein inhibited both human and rat enzyme with similar potencies. Two forms of val^12-Ha-Ras protein were prepared as substrates for these enzymes, differing in their carboxy terminal sequence. One form terminated in cysteine-valine-leucine-serine (Ras-CVLS) the other in cystein-valine-leucine-leucine (Ras-CVLL). Ras-CVLS is a substrate for the farnesyl protein transferase while Ras-CVLL is a substrate for geranylgeranyl protein transferase I. The cDNAs encoding these proteins were constructed so that the proteins contain an amino-terminal extension of 6 histidine residues. Both proteins were expressed in Escherichia coli and purified using metal chelate affinity chromatography. The radiolabelled isoprenyl pyrophosphate substrates, [^3H]farnesyl pyrophosphate and [^3H]geranylgeranyl pyrophosphate, were purchased from DuPont/New England Nuclear.
The geranylgeranyl protein transferase I assay was essentially identical to the farnesyl protein transferase assay described above, with two exceptions: [^3H]geranylgeranylpyrophosphate replaced farnesyl pyrophosphate as the isoprenoid donor and Ras-CVLL was the protein acceptor. This is similar to the assay reported by Casey et al (Casey, P. J., et al., (1991), Enzymatic modification of proteins with a geranylgeranyl isoprenoid, Proc. Natl. Acad. Sci, USA 88: 8631-8635, the disclosure of which is incorporated herein by reference thereto).

[3] = test system: T24-BAG4 human bladder carcinoma cells expressing an activated H-ras gene; assay: Cell Mat assay: inhibition of tumor cell growth; assay type: cell-based; conditions: Homo sapiens, tIC50
Description: (§2) Normal human HEPM fibroblasts were planted in 3.5 cm dishes at a density of 5×10^4 cells/dish in 2 ml growth medium, and incubated for 3-5 d to achieve confluence. Medium was aspirated from each dish and the indicator tumor cells, T24-BAG4 human bladder carcinoma cells expressing an activated H-ras gene, were planted on top of the fibroblast monolayer at a density of 2×10^3cells/dish in 2 ml growth medium, and allowed to attach overnight. Compound-induced colony inhibition was assayed by addition of serial dilutions of compound directly to the growth medium 24 h after tumor cell planting, and incubating cells for an additional 14 d to allow colony formation. Assays were terminated by rinsing monolayers twice with phosphate-buffered saline (PBS), fixing the monolayers with a 1% glutaraldehyde solution in PBS, then visualizing tumor cells by staining with X-Gal (Price, J., et al., Lineage analysis in the vertebrate nervous system by retrovirus-mediated gene transfer, Proc. Natl. Acad. Sci.84, 156-160(1987)). […] Both IC50 values were obtained by determining the density of tumor cells and mat cells by visual inspection and enumeration of cells per colony and the number of colonies under the microscope. The therapeutic index of the compound was quantitatively expressed as the ratio of mIC50/tIC50, with values greater than one indicative of tumor target specificity.

[4] = test system: Normal human HEPM fibroblasts; assay: Cell Mat assay: inhibition of normal cell growth; assay type: cell-based; conditions: Homo sapiens, Fibroblast, mIC50, normal cell monolayer
Description: as §2

[5] = test system: SW620 [human colon adenocarcinoma (lymph node metastasis)]; assay: In vivo anti-tumor study, SW620 s.c. tumor; parameters: species or system mouse; conditions: po
Excerpt: In Vivo Anti-Tumor Studies
Tumor cells (5×10^5 to 8×10^6 of M27 [mouse Lewis lung carcinoma], A431 [human epidermal carcinoma] or SW620 [human colon adenocarcinoma (lymph node metastasis)]) are innoculated subcutaneously into the flank of 5-6 week old athymic nu/nu female mice. For the C-f-1 [mouse fibroblast transformed with c-fos oncogene] tumor model, 2 mm^3 tumor fragments are transplanted subcutaneously into the flank of 5-6 week old athymic nu/nu female mice. Tumor bearing animals are selected and randomized when the tumors are established. Animals are treated with vehicle (beta cyclodextran for i.p. or corn oil for p.o.) only or compounds in vehicle twice a day (BID) for 5 (1-5) or 7 (1-7) days per week for 2 (×2) or 4 (×4) weeks. The percent inhibition of tumor growth relative to vehicle controls are determined by tumor measurements.

CCOC(=O)N1CCC(C2(F)c3ccc(Cl)cc3CCc3cccnc32)CC1 (stereo not shown) [Compound 530.00]
IC50 [1]: 3.7 µM
selective for FPT inhibition (versus GGPT) ([2]; FPT versus GGPT): at least 13 fold
activity against GGPT ([2]; at 49 μM): inactive
IC50 [3]: 12.5 µM
IC50 [4]: 100 µM
average % tumor inhibition ([5]; SW620, 100 MPK, 10/wk, ×4): 57%
% Inhibition (tumor growth relative to vehicle controls) ([5]; SW-620 s.c. in athymic nu/nu mice, BID, 1-5, × 4): 73%
